Reference: US10059695B2, “Cot modulators and methods of use thereof” (Gilead Sciences, Inc., priority 2016, dated 2018)

Experiments:
Human Cot = Human Cot (Homo sapiens (Human), UniProt P41279); assay: High Throughput Cot Biochemical Assay (KinEASE TR-FRET); conditions: recombinant human Cot catalytic domain, 400 μM ATP
Procedure: Example 24: High Throughput Cot Biochemical Assay
Human Cot enzyme activity was measured using KinEASE (Cisbio), a time-resolved fluorescence resonance energy transfer (TR-FRET) immunoassay. In this assay, Cot-catalyzes the phosporylation of a XL665-labeled peptide substrate. Europium conjugated […] specific antibody binds the resulting phosphorylated peptide. Formation of phosphorylated peptide is quantified by TR-FRET with Europium as the donor and XL665 the acceptor in a 2-step endpoint assay. Purified recombinant human Cot catalytic domain (30-397 amino acids) was purchased from Carna Biosciences. In brief, test compounds serially diluted in DMSO were delivered into Proxy white, low volume, 384 well plates using the Echo 550 acoustic liquid dispenser (Labcyte®). Cot enzyme and substrates were dispensed into assay plates using a Multi-Flo (Bio-Tek Instruments). The standard 5 μL reaction mixture contained 400 μM ATP, 1 μM STK3 peptide, 5 nM of Cot in reaction buffer (10 mM MOPS, pH 7.0, 0.02% NaN3, 0.5 mg/mL BSA, 10 mM MgOAc, 1 mM DTT, 0.025% NP-40, 1.5% glycerol) and 0.1% DMSO. After 2.5 hrs of incubation at room temperature, 5 μL of Stop and Detect Solution (1:200 Europium Cryptate labeled anti-phosphorylated peptide antibody solution and 125 nM strepavidin-XL665 Tracer in a 50 mM Hepes pH 7.0 detection buffer containing sufficient EDTA) was added. The plate was then further incubated for 120 minutes at room temperature and read using an Envision 2103 Multilabeled reader (PerkinElmer) with excitation/emission/FRET emission at 340 nm/615 nm/665 nm, respectively. Fluorescence intensities at 615 nm and 665 nm emission wavelengths were expressed as a ratio (665 nm/615 nm).

TNFα = assay: Cot Monocyte TNFα Cell Based Assay; conditions: LPS-stimulated cryopreserved human monocytes, TNFα by TR-FRET
Procedure: Example 23: Cot Monocyte TNFα Cell Based Assay
Cryopreserved human monocytes (Stem Cell Technologies) were thawed, diluted in RPMI with Glutamax (10 mM HEPES, 1× Pen-Strep, 55 μM β-mercaptoethanol, 1 mM Sodium pyruvate) media containing 10% FBS to 0.125×10^6 cells/ml and recovered at 37° C. for 2 hours. The cell suspension was then plated at a density of 5,000 cells/well onto black 384 well Greiner clear bottom plates. Plates were pre-spotted with test compounds and serially diluted in DMSO where 200 nL/well were delivered using the Echo 550 acoustic liquid dispenser (Labcyte®) for a final DMSO concentration of 0.5%. Plated cells were treated with compound for 1 hour at 37° C. Cells were then stimulated with 50 μg/ml of LPS (Sigma) excluding outside columns of plate used for unstimulated cell control wells. Cells were incubated for an additional 4 hours at 37° C. Cells were then spun out of the media and 5 μl of sample were taken and analyzed for total TNFα content using the TR-FRET Human TNFα detection system (CisBio). This system utilizes two labeled antibodies (cryptate and XL665) that bind to two different epitopes of the TNFα molecule and produce FRET signal proportional to the concentration of TNFα in the sample. Detection antibodies are mixed 50:50 and 5 μL were dispensed into each well. Plates were covered with clear seals and incubated at room temp overnight. The following morning plates were read using an Envision 2103 Multilabeled reader (PerkinElmer) with excitation/emission/FRET emission at 340 nm/615 nm/665 nm, respectively. Fluorescence intensities at 615 nm and 665 nm emission wavelengths were expressed as a ratio (665 nm/615 nm). Percent of control was calculated as follows: % Control=100×(RatioSample−Ratio0% stimulation)/(Ratio100% Stimulation−Ratio0% Stimulation) where unstimulated cells (0% stimulation) were the negative control and stimulated cells (100% stimulation) were used as the positive control.

Human Cot, sequence (P41279 30-397): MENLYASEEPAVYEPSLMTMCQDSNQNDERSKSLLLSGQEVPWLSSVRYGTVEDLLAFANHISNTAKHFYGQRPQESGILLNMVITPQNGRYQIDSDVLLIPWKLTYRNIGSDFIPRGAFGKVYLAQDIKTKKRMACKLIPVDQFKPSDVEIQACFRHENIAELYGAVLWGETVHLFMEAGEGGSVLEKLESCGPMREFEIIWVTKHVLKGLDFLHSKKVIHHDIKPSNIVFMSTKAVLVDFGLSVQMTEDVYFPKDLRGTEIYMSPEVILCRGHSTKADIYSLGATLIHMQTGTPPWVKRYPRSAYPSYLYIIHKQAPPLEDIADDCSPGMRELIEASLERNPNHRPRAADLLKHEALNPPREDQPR

Structure (SMILES) | IC50 (Human Cot) | EC50 (TNFα)
[2H][C@](Nc1cc(C#N)c2ncnc(NCC(C)(C)C)c2c1)(c1ccc(F)cc1)c1cn(C2CC2)nn1 [I-14, (S)-6-(((1-cyclopropyl-1H-1,2,3-triazol-4-yl)(4-fluorophenyl)methyl-d)amino)-4-(neopentylamino) quinazoline-8-carbonitrile] | 2.1 nM | 42 nM
Cc1nc(F)ccc1[C@H](Nc1cc(Cl)c2ncnc(NCC(C)(C)C)c2c1)c1cn(C2(C(F)F)CC2)nn1 [I-21, (S)-8-chloro-N^6-((1-(1-(difluoromethyl)cyclopropyl)-1H-1,2,3-triazol-4-yl)(6-fluoro-2-melhylpyridin-3-yl)methyl)-N^4-neopentylquinazoline-4,6-diamine] | 1.9 nM | 28 nM
[2H][C@](Nc1cc(Cl)c2ncnc(NCC(C)(C)C)c2c1)(c1ccc(F)cc1)c1cn(C2(CF)CC2)nn1 [I-16, (S)-8-chloro-N^6-((1-(1-(fluoromethyl)cyclopropyl)-1H-1,2,3-triazol-4-yl)(4-fluorophenyl)methyl-d)-N^4-neopentylquinazoline-4,6-diamine] | 3.1 nM | 46 nM
Cn1ccc2c([C@H](Nc3cc(Cl)c4ncnc(NCC(C)(C)C)c4c3)c3cn(C4(C(F)F)CC4)nn3)cccc2c1=O [I-25, (S)-5-(((8-chloro-4-(neopentylamino)quinazolin-6-yl)amino)(1-(1-(difluoromethyl)cyclopropyl)-1H-1,2,3-triazol-4-yl)methyl)-2-methylisoquinolin-1(2H)-one] | 2.4 nM | 25.5 nM
[2H][C@](Nc1ccc2ncnc(NCC(C)(C)C)c2c1)(c1cccc(C#N)c1)c1cn(C2CC2)nn1 [I-7, (S)-3-((1-cyclopropyl-1H-1,2,3-triazol-4-yl)((4-(neopentylamino)quinazolin-6-yl)amino)methyl-d)benzonitrile] | 2.6 nM | 102 nM
[2H][C@](c1ccc(F)cc1)(c1cn(C2CC2)nn1)N(CC)c1ccc2ncnc(NCC(C)(C)C)c2c1 [I-6, (S)-N6-((1-cyclopropyl-1H-1,2,3-triazol-4-yl)(4-fluorophenyl)methyl-d)-N6-ethyl-N4-neopentylquinazoline-4,6-diamine] | 276 nM | 4230 nM
[2H]C(Nc1ccc2ncnc(NC(CC#N)c3ccccc3)c2c1)(c1ccc(F)cc1)c1cn(C2CC2)nn1 [I-5, 3-((6-(((S)-(1-cyclopropyl-1H-1,2,3-triazol-4-yl)(4-fluorophenyl)methyl-d)amino)quinazolin-4-yl)amino)-3-phenylpropanenitrile] | 53 nM | 2500 nM
[2H][C@](Nc1cc(Br)c2ncnc(NCC(C)(C)C)c2c1)(c1ccc(F)cc1)c1cn(C2CC2)nn1 [I-15, (S)-8-bromo-N6-((1-cyclopropyl-1H-1,2,3-triazol-4-yl)(4-fluorophenyl)methyl-d)-N4-neopentylquinazoline-4,6-diamine] | 2.6 nM | 82 nM
[2H][C@](Nc1cc(Cl)c2ncnc(N[C@H](CCC#N)c3ccccc3)c2c1)(c1ccc(F)cc1)c1cn(C2(C(F)(F)F)CC2)nn1 [I-12, (R)-4-((8-chloro-6-(((S)-(4-fluorophenyl)(1-(1-(trifluoromethyl)cyclopropyl)-1H-1,2,3-triazol-4-yl)methyl-d)amino)quinazolin-4-yl)amino)-4-phenylbutanenitrile] | 137 nM | > 1000 nM
Cc1nc(F)ccc1[C@H](Nc1cc(C#N)c2ncnc(NCC(C)(C)C)c2c1)c1cn(C2(C(F)F)CC2)nn1 [I-22, (S)-6-(((1-(1-(difluoromethyl)cyclopropyl)-1H-1,2,3-triazol-4-yl)(6-fluoro-2-methylpyridin-3-yl)methyl)amino)-4-(neopentylamino) quinazoline-8-carbonitrile] | 1.7 nM | 36 nM
[2H][C@@](Nc1cc(C#N)c2ncnc(NCC(C)(C)C)c2c1)(c1cn(C2(C#N)CC2)nn1)c1ccccc1Cl [I-20, (S)-6-(((2-chlorophenyl)(1-(1-cyanocyclopropyl)-1H-1,2,3-triazol-4-yl)methyl-d)amino)-4-(neopentylamino) quinazoline-8-carbonitrile] | 3.3 nM | 35 nM

Now from value to compound:

IC50 (Human Cot) | EC50 (TNFα) | Structure (SMILES)
8.3 nM | 337 nM | Fc1ccc(Nc2ncnc3c(Cl)cc(N[C@@H](c4ccccc4)c4cn(C5CCNCC5)nn4)cc23)cc1Cl [II-9, (S)-8-chloro-N4-(3-chloro-4-fluorophenyl)-N6-(phenyl(1-(piperidin-4-yl)-1H-1,2,3-triazol-4-yl)methyl) quinazoline-4,6-diamine]
318 nM | 1240 nM | Fc1ccc(Nc2ncnc3ccc(N[C@@H](c4ccc(Cl)cc4)c4cn(C5CCN(C6COC6)CC5)nn4)cc23)cc1Cl [II-8, (S)-N4-(3-chloro-4-fluorophenyl)-N6-((4-chlorophenyl)(1-(1-(oxetan-3-yl)piperidin-4-yl)-1H-1,2,3-triazol-4-yl)methyl) quinazoline-4,6-diamine]
74 nM | 645 nM | [2H][C@](Nc1ccc2ncnc(Nc3cnc(F)c(F)c3)c2c1)(c1ccc(F)cc1)c1cn(C2CC2)nn1 [II-11, (S)-N^6-((1-cyclopropyl-1H-1,2,3-triazol-4-yl)(4-fluorophenyl)methyl-d)-N^4-(5,6-difluoropyridin-3-yl)quinazoline-4,6-diamine]
5.9 nM | 254 nM | CCN1CCC(n2cc([C@@H](Nc3cc(Cl)c4ncnc(Nc5ccc(F)c(Cl)c5)c4c3)c3ccccc3)nn2)CC1 [II-4, (S)-8-chloro-N^4-(3-chloro-4-fluorophenyl)-N^6-((1-(1-ethylpiperidin-4-yl)-1H-1,2,3-triazol-4-yl)(phenyl)methyl) quinazoline-4,6-diamine]
